Common to all, as to type: functional
Experiment [1] deals with Saccharomyces cerevisiae. Kind of experiment: DNA damaging activity against DNA RS 322YK ([…]) Saccharomyces cerevisiae.
The test system of experiment [2] is Saccharomyces cerevisiae. In words: DNA damaging activity against RS 188N (RAD+) Saccharomyces cerevisiae.
Experiment [3] relates to Saccharomyces cerevisiae. In words: DNA damaging activity against RS 321N Saccharomyces cerevisiae.

In ChEMBL document CHEMBL1151220, “Further bioactive piperidine alkaloids from the flowers and green fruits of Cassia spectabilis” (2004) one finds Activity and IC12 data, which are given here for five molecules.

Each structure is given as a SMILES string. The source made the active and inactive calls. The rule behind the calls is not given here.

For `CC(=O)CCCCCCCCCCCC[C@H]1CC[C@@H](O)[C@@H](CO)N1`, the outcome with Saccharomyces cerevisiae [1], in the experiment with Saccharomyces cerevisiae [2] and with Saccharomyces cerevisiae [3] was inactive.
Take `CC(=O)CCCCCCCCCCCC[C@@H]1CC[C@@H](O)[C@@H](C)N1`: the outcome with Saccharomyces cerevisiae [1], in the experiment with Saccharomyces cerevisiae [2] and with Saccharomyces cerevisiae [3] was inactive.
As for `CC(=O)CCCCCCCCCCCC[C@H]1CC[C@@H](OC(C)=O)[C@@H](C)N1`, the IC12 in the experiment on Saccharomyces cerevisiae [3] worked out at 32 µg/mL.
On to `CC(=O)CCCCCCCCCCCC[C@H]1CC[C@@H](O)[C@@H](C)N1`, for which the IC12 in the experiment on Saccharomyces cerevisiae [3] worked out at 17 µg/mL.
Molecule `COC1=C(N)C(=O)c2nc(-c3nc(C(=O)O)c(C)c(-c4ccc(OC)c(OC)c4O)c3N)ccc2C1=O` [STREPTONIGRIN] returned an IC12 with Saccharomyces cerevisiae [3] of 4 µg/mL.
